In one test the target is T1, Human mTOR (FLAG-TOR) (Homo sapiens, UniProt P42345).
T1 construct: FLAG
The test can be described thus: Human mTOR kinase assay with purified enzyme, DELFIA format. The format is biochemical. In a few lines:
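Purified FLAG-mTOR in HEPES pH 7.4 buffer with 10 mM MnCl2 was preincubated with inhibitor and reacted 2 h at room temperature with His6-S6K substrate, then stopped with EDTA/EGTA. Phospho-T389 S6K detected by DELFIA with Eu-labelled antibody (40 ng/mL) after plate capture; inhibition computed from signal.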

Test [1] deals with T2, PI3K (Homo sapiens, UniProt P42336).
T2 construct: PI3 Kinase α IC50; other: PI3 Kinase α; other: PI3 Kinase α isoform, fluorescence polarization
The test can be described thus: Fluorescence polarization assay for PI3K. The format is biochemical. To be noted: read-out: PI3 Kinase α IC50. In short, it runs like this: (§1)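 PI3K was preincubated with compound (final DMSO 1%), and the reaction was started with PIP2/ATP substrate and run 30–60 min. It was stopped with a detector mix giving 10 nM red probe and 70 nM GST-GRP.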
A general note: In fluorescence polarisation assays a small probe gives low polarisation when free and higher when bound to something large.

The target of test [2] is T3, PI3K (Homo sapiens, UniProt P48736).
T3 construct: PI3 Kinase γ IC50; other: PI3 Kinase γ; other: PI3 Kinase γ isoform, fluorescence polarization
As to the kind of experiment: Fluorescence polarization assay for PI3K. It is filed as biochemical. Particulars: read-out: PI3 Kinase γ IC50. In short, it runs like this: as §1

The next test relates to prostate line LNCap. As to the kind of experiment: In vitro cell culture growth assay (MTS), LNCap. It is filed as cell-based. Particulars: Homo sapiens, LNCaP, 72 h, LNCap cells, three days after drug treatment. In a few lines: (§2)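 Cells were plated and, one day later, treated with inhibitors. Three days after treatment, viable cell density was measured by MTS dye conversion, read as absorbance at 490 nm. Effects are expressed as percent of control growth versus vehicle-treated cells on the same plate.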

A further test concerns breast line MDA468. As to the kind of experiment: In vitro cell culture growth assay (MTS), MDA468. The format is cell-based. To be noted: Homo sapiens, 72 h, MDA468 cells, three days after drug treatment. In a few lines:
as §2

[3] abbreviates: purified human mTOR enzyme, DELFIA format.
Setting [4] is: PI3 Kinase α isoform, fluorescence polarization.
Where [5] appears, read: PI3 Kinase γ isoform, fluorescence polarization.

Like-named read-outs stand apart in the source and are kept apart here.

Experimental findings from patent publication US8129371B2, “Thienopyrimidine and pyrazolopyrimidine compounds and their use as mTOR kinase and PI3 kinase inhibitors” (Wyeth LLC, priority 2007, dated 2012) are described below.

The term IC50 denotes the midpoint of a concentration-inhibition curve.

T3 sequence (P48736 whole entry, canonical isoform): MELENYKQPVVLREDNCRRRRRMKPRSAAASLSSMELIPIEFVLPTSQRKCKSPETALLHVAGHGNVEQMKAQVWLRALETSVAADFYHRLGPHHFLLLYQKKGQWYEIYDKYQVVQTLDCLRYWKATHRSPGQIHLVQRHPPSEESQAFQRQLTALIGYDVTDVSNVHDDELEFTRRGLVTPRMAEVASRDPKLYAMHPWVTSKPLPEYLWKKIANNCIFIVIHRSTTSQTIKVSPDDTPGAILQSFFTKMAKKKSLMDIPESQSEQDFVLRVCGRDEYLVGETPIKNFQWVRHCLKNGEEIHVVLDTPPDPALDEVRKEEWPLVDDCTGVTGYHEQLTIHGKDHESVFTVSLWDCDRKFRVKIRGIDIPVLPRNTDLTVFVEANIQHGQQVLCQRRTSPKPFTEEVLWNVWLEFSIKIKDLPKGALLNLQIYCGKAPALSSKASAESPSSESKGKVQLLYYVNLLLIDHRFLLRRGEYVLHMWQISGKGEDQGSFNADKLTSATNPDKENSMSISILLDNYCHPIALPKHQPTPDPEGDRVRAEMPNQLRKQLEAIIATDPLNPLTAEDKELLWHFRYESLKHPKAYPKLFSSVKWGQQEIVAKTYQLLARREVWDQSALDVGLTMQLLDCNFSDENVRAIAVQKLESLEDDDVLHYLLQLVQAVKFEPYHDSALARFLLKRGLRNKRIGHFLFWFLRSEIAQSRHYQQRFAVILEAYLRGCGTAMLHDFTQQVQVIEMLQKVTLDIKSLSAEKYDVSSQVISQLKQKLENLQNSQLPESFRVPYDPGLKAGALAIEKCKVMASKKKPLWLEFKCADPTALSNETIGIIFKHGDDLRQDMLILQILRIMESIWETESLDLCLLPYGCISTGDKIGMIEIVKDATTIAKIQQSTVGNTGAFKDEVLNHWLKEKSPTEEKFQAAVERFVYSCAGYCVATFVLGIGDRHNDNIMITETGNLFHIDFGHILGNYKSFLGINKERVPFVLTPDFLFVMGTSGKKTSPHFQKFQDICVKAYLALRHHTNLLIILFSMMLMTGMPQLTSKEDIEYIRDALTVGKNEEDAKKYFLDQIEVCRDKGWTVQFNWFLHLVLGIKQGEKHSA
T2 sequence (P42336 whole entry, canonical isoform): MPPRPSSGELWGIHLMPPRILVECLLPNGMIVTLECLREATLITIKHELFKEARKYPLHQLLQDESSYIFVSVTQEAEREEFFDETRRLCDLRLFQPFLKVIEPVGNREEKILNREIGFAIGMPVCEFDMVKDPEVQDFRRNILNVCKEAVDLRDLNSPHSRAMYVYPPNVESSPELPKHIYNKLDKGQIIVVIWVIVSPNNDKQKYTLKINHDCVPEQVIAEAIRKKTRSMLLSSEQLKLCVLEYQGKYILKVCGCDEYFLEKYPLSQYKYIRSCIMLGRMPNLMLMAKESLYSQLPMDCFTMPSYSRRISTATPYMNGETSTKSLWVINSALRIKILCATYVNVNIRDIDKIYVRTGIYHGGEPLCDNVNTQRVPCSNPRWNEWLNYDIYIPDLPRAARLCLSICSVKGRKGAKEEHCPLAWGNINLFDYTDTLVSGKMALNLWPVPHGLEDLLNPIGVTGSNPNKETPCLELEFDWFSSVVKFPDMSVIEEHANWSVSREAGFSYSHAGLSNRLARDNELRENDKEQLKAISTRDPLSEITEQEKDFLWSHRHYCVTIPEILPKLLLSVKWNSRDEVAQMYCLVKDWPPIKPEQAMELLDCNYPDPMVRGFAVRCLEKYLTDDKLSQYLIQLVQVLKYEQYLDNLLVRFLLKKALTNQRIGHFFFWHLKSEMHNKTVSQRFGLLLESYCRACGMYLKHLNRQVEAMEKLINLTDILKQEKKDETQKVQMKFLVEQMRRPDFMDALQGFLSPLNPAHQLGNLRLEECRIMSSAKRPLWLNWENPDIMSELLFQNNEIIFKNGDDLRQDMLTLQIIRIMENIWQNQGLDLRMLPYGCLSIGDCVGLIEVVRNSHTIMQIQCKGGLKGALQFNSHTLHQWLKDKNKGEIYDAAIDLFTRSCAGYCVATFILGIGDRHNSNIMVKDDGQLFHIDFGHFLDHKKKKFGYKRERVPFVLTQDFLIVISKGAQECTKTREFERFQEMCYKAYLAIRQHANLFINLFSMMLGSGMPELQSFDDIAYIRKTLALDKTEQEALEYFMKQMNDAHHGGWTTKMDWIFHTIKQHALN

On to `Oc1cccc(-c2nc(N3C[C@@H]4C[C@H]3CO4)c3cnn(-c4ccccc4)c3n2)c1` [Example 382, 3-{4-[(1S,4S)-2-oxa-5-azabicyclo[2.2.1]hept-5-yl]-1-phenyl-1H-pyrazolo[3,4-d]pyrimidin-6-yl}phenol], for which the IC50 against Human mTOR (FLAG-TOR) (setting [3]) was 0.0495 µM; at PI3K [1] (setting [4]), 1.91 µM; on PI3K [2] (setting [5]) it was 11.6 µM; in the test on prostate line LNCap, 1.2 µM; with breast line MDA468, 5.5 µM.

For the compound `COC(=O)N1CCC(n2ncc3c(N4CC5CCC(C4)O5)nc(-c4ccc(NC(=O)Nc5ccc(N6CCN(C)CC6)nc5)cc4)nc32)CC1` [Example 167, methyl 4-{6-[4-({[6-(4-methylpiperazin-1-yl)pyridin-3-yl]carbamoyl}amino)phenyl]-4-(8-oxa-3-azabicyclo[3.2.1]oct-3-yl)-1H-pyrazolo[3,4-d]pyrimidin-1-yl}piperidine-1-carboxylate], the IC50 against Human mTOR (FLAG-TOR) is 0.000425 µM; at PI3K [1] (PI3 Kinase α) it was 0.234 µM; on PI3K [2] (PI3 Kinase γ), 1.22 µM; with prostate line LNCap, < 0.001 µM; with breast line MDA468 it was 0.004 µM.

For `Cn1ncc2c(N3CC4CCC(C3)O4)nc(-c3ccc(NC(=O)NCCO)cc3)nc21` [Example 54, 1-(2-hydroxyethyl)-3-{4-[1-methyl-4-(8-oxa-3-azabicyclo[3.2.1]oct-3-yl)-1H-pyrazolo[3,4-d]pyrimidin-6-yl]phenyl}urea], the IC50 against Human mTOR (FLAG-TOR) was 0.0011 µM; at PI3K [1] (PI3 Kinase α), 0.437 µM; on PI3K [2] (PI3 Kinase γ) it was 5.79 µM; in the test on prostate line LNCap it was 0.41 µM; with breast line MDA468, 1.2 µM.

For the compound `CCn1ncc2c(N3CC4CCC(C3)O4)nc(-c3ccc(NC(=O)Nc4ccc(N5CCN(C)CC5)nc4)cc3)nc21` [Example 185, 1-{4-[1-ethyl-4-(8-oxa-3-azabicyclo[3.2.1]oct-3-yl)-1H-pyrazolo[3,4-d]pyrimidin-6-yl]phenyl}-3-[6-(4-methylpiperazin-1-yl)pyridin-3-yl]urea], the IC50 at Human mTOR (FLAG-TOR) was 0.000735 µM; at PI3K [1] (PI3 Kinase α) it was 0.196 µM; at PI3K [2] (PI3 Kinase γ) it was 2.27 µM; in the test with prostate line LNCap, < 0.001 µM; in the test on breast line MDA468, 0.001 µM.

Turning to `CC(=O)N1CC2CN(c3nc(-c4ccc(NC(=O)Nc5ccncc5)cc4)nc4c3cnn4CC(F)(F)F)CC(C1)O2` [Example 339, 1-{4-[4-(7-acetyl-9-oxa-3,7-diazabicyclo[3.3.1]non-3-yl)-1-(2,2,2-trifluoroethyl)-1H-pyrazolo[3,4-d]pyrimidin-6-yl]phenyl}-3-pyridin-4-ylurea], the IC50 was > 6.33 µM on Human mTOR (FLAG-TOR) (setting [3]); 9.42 µM at PI3K [1] (setting [4]); > 10 µM at PI3K [2] (setting [5]); > 60 µM with prostate line LNCap; > 60 µM with breast line MDA468.

With `CN1CCN(c2ccc(NC(=O)Nc3ccc(-c4nc(N5CC6CCC(C5)O6)c5cnn(CCF)c5n4)cc3)cc2)CC1` [Example 246, 1-{4-[1-(2-fluoroethyl)-4-(8-oxa-3-azabicyclo[3.2.1]oct-3-yl)-1H-pyrazolo[3,4-d]pyrimidin-6-yl]phenyl}-3-[4-(4-methylpiperazin-1-yl)phenyl]urea], the IC50 is 0.000698 µM at Human mTOR (FLAG-TOR); 0.096 µM on PI3K [1] (PI3 Kinase α); 1.56 µM on PI3K [2] (PI3 Kinase γ); < 0.001 µM in the test on prostate line LNCap; 0.007 µM in the test with breast line MDA468.

Take `COC(=O)N1CCC(n2ncc3c(N4CC5CCC(C4)O5)nc(-c4ccc(NC(=O)Nc5cccnc5)cc4)nc32)CC1` [Example 13, methyl 4-[4-(8-oxa-3-azabicyclo[3.2.1]oct-3-yl)-6-{4-[(pyridin-3-ylcarbamoyl)amino]phenyl}-1H-pyrazolo[3,4-d]pyrimidin-1-yl]piperidine-1-carboxylate]: the IC50 on Human mTOR (FLAG-TOR) worked out at 0.0001 µM; on PI3K [1] (PI3 Kinase α), 0.613 µM; at PI3K [2] (PI3 Kinase γ), 6.84 µM; in the test on prostate line LNCap it was 0.015 µM; in the test on breast line MDA468, 0.075 µM.
